According to patent US5605929A, “Methods and compositions for inhibiting 5α-reductase activity” (priority 1995, dated 1997):

Biological target: T1, 5α-Reductase of Rat Liver Microsomes (Rattus norvegicus, UniProt P24008)
T1 sequence (P24008 1-259): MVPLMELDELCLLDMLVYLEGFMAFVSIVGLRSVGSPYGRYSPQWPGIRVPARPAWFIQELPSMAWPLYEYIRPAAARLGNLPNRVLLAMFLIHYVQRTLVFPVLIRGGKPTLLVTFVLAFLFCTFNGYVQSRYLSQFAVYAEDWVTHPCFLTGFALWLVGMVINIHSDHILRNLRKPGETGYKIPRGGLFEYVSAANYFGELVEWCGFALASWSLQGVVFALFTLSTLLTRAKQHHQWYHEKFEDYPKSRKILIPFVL
Test: biochemical
Conditions: not given

SMILES | IC50
CCCCCC/C=C/CCCCCCCCC(=O)O [10-trans-Heptadecenoic Acid, 10-trans-heptadecenoicacid] | > 200 µM
CCCCCCCC/C=C/CCCCCCCCC(=O)O [10-trans-Nonadecenoic Acid, 10-trans nonadecenoic acid] | > 200 µM
CCCC/C=C\CCCCCCCCCCCC(=O)O [13-Octadecenoic Acid, 13-octadecenoic acid] | 93 µM
CC/C=C\C/C=C\C/C=C\CCCCCCCCCC(=O)O [11,14,17-cis-Eicosatrienoic Acid, 11,14,17-eicosatrienoic acid] | 29 µM
CCCCC/C=C\C/C=C\C/C=C\CCCCC(=O)OCC(COC(=O)CCCC/C=C\C/C=C\C/C=C\CCCCC)OC(=O)CCCC/C=C\C/C=C\C/C=C\CCCCC [Tri-γ-Linolenin, tri-γ-linolenin] | > 200 µM
CCCCC/C=C\C/C=C\C/C=C\C/C=C\CCCCCC(=O)O | 46 µM
CCCCC/C=C\C/C=C\CCCCCCCCCC(=O)O [11,14-cis-Eicosadienoic Acid, 11,14 eicosadienoic acid] | 131 µM
CCCCC/C=C\C/C=C\C/C=C\CCCCC(=O)OC [methyl γ-linolenate] | > 200 µM
CCCCCCC=CCCCCCCCCC(=O)OC [methyl 10-heptadecenoate] | > 200 µM

Same assay, conditions: read-out: % Inhibition of [^3 H]4-MA binding

SMILES | inhibition at 10 µM | inhibition at 40 µM | inhibition at 200 µM
CC/C=C\C/C=C\C/C=C\CCCCCCCC(=O)OC [α-Linolenic acid methyl ester] | < 10% | < 10% | < 10%
CCCCCCCC/C=C\CCCCCCCC(=O)OC [Oleic acid methyl ester] | – | < 10% | < 10%
CCCCCCCC/C=C\CCCCCCCCO [Oleyl alcohol] | – | < 10% | < 10%
CCCCC/C=C\C/C=C\CCCCCCCCO [Linoleyl alcohol] | < 10% | < 10% | 25 ± 5%
CCCC/C=C\CCCCCCCC(=O)OC [myristoleic acid methyl ester] | – | – | 27%
CCCCCC/C=C\CCCCCCCCO [Palmitoleyl alcohol] | – | < 10% | 16 ± 4%
CC/C=C\C/C=C\C/C=C\C/C=C\C/C=C\C/C=C\CCCO [cis4,7,10,13,,16,19-docosahexenol] | – | – | 51%
CC/C=C\C/C=C\C/C=C\CCCCCCCCO [α-Linolenyl alcohol] | < 10% | < 10% | 24 ± 1%
CCCCC/C=C\C/C=C\CCCCCCCC(=O)OC [Linoleic acid methyl ester] | – | < 10% | < 10%
CCCCCC/C=C/CCCCCCCC(=O)O [Palmitelaidic Acid] | – | – | < 10%

Same assay, conditions: read-out: % Inhibition of [^3 H]4-MA binding, Table 2, 5 μM

SMILES | inhibition at 5 µM
CCCCCC/C=C/CCCCCCCCC(=O)O [10-trans-Heptadecenoic Acid, 10-trans-heptadecenoicacid] | < 10%
CCCCCCCC/C=C/CCCCCCCCC(=O)O [10-trans-Nonadecenoic Acid, 10-trans nonadecenoic acid] | < 10%
CCCC/C=C\CCCCCCCCCCCC(=O)O [13-Octadecenoic Acid, 13-octadecenoic acid] | < 10%
CC/C=C\C/C=C\C/C=C\CCCCCCCCCC(=O)O [11,14,17-cis-Eicosatrienoic Acid, 11,14,17-eicosatrienoic acid] | < 10%
CCCCC/C=C\C/C=C\C/C=C\CCCCC(=O)OCC(COC(=O)CCCC/C=C\C/C=C\C/C=C\CCCCC)OC(=O)CCCC/C=C\C/C=C\C/C=C\CCCCC [Tri-γ-Linolenin, tri-γ-linolenin] | < 10%
CCCCC/C=C\C/C=C\C/C=C\C/C=C\CCCCCC(=O)O | < 10%
CCCCC/C=C\C/C=C\CCCCCCCCCC(=O)O [11,14-cis-Eicosadienoic Acid, 11,14 eicosadienoic acid] | < 10%

Same assay, conditions: read-out: % Inhibition of [^3 H]4-MA binding, Table 2, 10 μM

SMILES | inhibition at 10 µM
CCCCCC/C=C/CCCCCCCCC(=O)O [10-trans-Heptadecenoic Acid, 10-trans-heptadecenoicacid] | < 10%
CCCCCCCC/C=C/CCCCCCCCC(=O)O [10-trans-Nonadecenoic Acid, 10-trans nonadecenoic acid] | < 10%
CCCC/C=C\CCCCCCCCCCCC(=O)O [13-Octadecenoic Acid, 13-octadecenoic acid] | < 10%
CC/C=C\C/C=C\C/C=C\CCCCCCCCCC(=O)O [11,14,17-cis-Eicosatrienoic Acid, 11,14,17-eicosatrienoic acid] | 1%
CCCCC/C=C\C/C=C\C/C=C\CCCCC(=O)OCC(COC(=O)CCCC/C=C\C/C=C\C/C=C\CCCCC)OC(=O)CCCC/C=C\C/C=C\C/C=C\CCCCC [Tri-γ-Linolenin, tri-γ-linolenin] | < 10%
CCCCC/C=C\C/C=C\C/C=C\C/C=C\CCCCCC(=O)O | < 10%
CCCCC/C=C\C/C=C\CCCCCCCCCC(=O)O [11,14-cis-Eicosadienoic Acid, 11,14 eicosadienoic acid] | < 10%

Same assay, conditions: read-out: % Inhibition of [^3 H]4-MA binding, Table 2, 40 μM

SMILES | inhibition at 40 µM
CCCCCC/C=C/CCCCCCCCC(=O)O [10-trans-Heptadecenoic Acid, 10-trans-heptadecenoicacid] | < 10%
CCCCCCCC/C=C/CCCCCCCCC(=O)O [10-trans-Nonadecenoic Acid, 10-trans nonadecenoic acid] | < 10%
CCCC/C=C\CCCCCCCCCCCC(=O)O [13-Octadecenoic Acid, 13-octadecenoic acid] | < 10%
CC/C=C\C/C=C\C/C=C\CCCCCCCCCC(=O)O [11,14,17-cis-Eicosatrienoic Acid, 11,14,17-eicosatrienoic acid] | 78%
CCCCC/C=C\C/C=C\C/C=C\CCCCC(=O)OCC(COC(=O)CCCC/C=C\C/C=C\C/C=C\CCCCC)OC(=O)CCCC/C=C\C/C=C\C/C=C\CCCCC [Tri-γ-Linolenin, tri-γ-linolenin] | < 10%
CCCCC/C=C\C/C=C\C/C=C\C/C=C\CCCCCC(=O)O | 41%
CCCCC/C=C\C/C=C\CCCCCCCCCC(=O)O [11,14-cis-Eicosadienoic Acid, 11,14 eicosadienoic acid] | < 10%

Same assay, conditions: read-out: % Inhibition of [^3 H]4-MA binding, Table 2, 200 μM

SMILES | inhibition at 200 µM
CCCCCC/C=C/CCCCCCCCC(=O)O [10-trans-Heptadecenoic Acid, 10-trans-heptadecenoicacid] | 40%
CCCCCCCC/C=C/CCCCCCCCC(=O)O [10-trans-Nonadecenoic Acid, 10-trans nonadecenoic acid] | 32%
CCCC/C=C\CCCCCCCCCCCC(=O)O [13-Octadecenoic Acid, 13-octadecenoic acid] | 57%
CC/C=C\C/C=C\C/C=C\CCCCCCCCCC(=O)O [11,14,17-cis-Eicosatrienoic Acid, 11,14,17-eicosatrienoic acid] | 94%
CCCCC/C=C\C/C=C\C/C=C\CCCCC(=O)OCC(COC(=O)CCCC/C=C\C/C=C\C/C=C\CCCCC)OC(=O)CCCC/C=C\C/C=C\C/C=C\CCCCC [Tri-γ-Linolenin, tri-γ-linolenin] | < 10%
CCCCC/C=C\C/C=C\C/C=C\C/C=C\CCCCCC(=O)O | 79%
CCCCC/C=C\C/C=C\CCCCCCCCCC(=O)O [11,14-cis-Eicosadienoic Acid, 11,14 eicosadienoic acid] | 89%
